The source of these data is patent publication US9365563B2, “TRPV1 antagonists including dihydroxy substituent and uses thereof” (Purdue Pharma L.P., priority 2007, dated 2016).

A word on the ED50: it is the dose at which the effect has come halfway, by size or by number of responders. The term IC50 denotes the concentration that inhibits the measured activity by half. A word on the aqueous solubility: it is the dissolved amount per volume that the medium holds. Low values mean a poorly soluble substance, high ones a readily soluble substance.

Like-named read-outs stand apart in the source and are kept apart here.

Data set [1] relates to FCA-induced inflammation of the rat hind paw. As to the kind of experiment: FCA model of inflammatory pain (thermal hyperalgesia, plantar test). It is filed as in vivo. The note with it: for ED50: read-out: ED50 for reversal of FCA-induced thermal hyperalgesia. The protocol: (§1) Each experiment uses rats weighing between 200-260 g at the start of the experiment. The rats are group-housed and have free access to food and water at all times, except prior to oral administration of a compound of formula I when food is removed for 16 hours before dosing. A control group acts as a comparison to rats treated with a compound of formula I. The control group is administered the carrier for the compound of formula I. The volume of carrier administered to the control group is the same as the volume of carrier and compound of formula I administered to the test group.
To assess the actions of the compounds of formula I on the treatment or prevention of inflammatory pain the Freund's complete adjuvant (“FCA”) model of inflammatory pain is used. FCA-induced inflammation of the rat hind paw is associated with the development of persistent inflammatory mechanical and thermal hyperalgesia and provides reliable prediction of the anti-hyperalgesic action of clinically useful analgesic drugs (L. Bartho et al., “Involvement of Capsaicin-sensitive Neurones in Hyperalgesia and Enhanced Opioid Antinociception in Inflammation,” Naunyn-Schmiedeberg's Archives of Pharmacol. 342:666-670 (1990)). The left hind paw of each animal is administered a 50 μL intraplantar injection of 50% FCA. 24 hour post injection, the animal is assessed for response to noxious mechanical stimuli by determining the PWT, or to noxious thermal stimuli by determining the PWL, as described below. […] Responses to noxious mechanical or thermal stimuli are then determined 1, 3, 5 and 24 hours post administration. […]
The plantar test can be used to assess thermal hyperalgesia. For this test, hind paw withdrawal latencies (PWL) to a noxious thermal stimulus are determined using a plantar test apparatus (commercially available from Ugo Basile of Italy) following the technique described by K. Hargreaves et al., “A New and Sensitive Method for Measuring Thermal Nociception in Cutaneous Hyperalgesia,” Pain 32(1):77-88 (1988). […] Three latencies are determined at each time point and averaged. […]

For data set [2], the target named is T1, human TRPV1 (Homo sapiens (Human), UniProt Q8NER1). As to the kind of experiment: pH-based assay, Protocol 2 (hpH-CHO). Particulars: TRPV1/CHO cells, pH 5.0-5.1; mean ± SEM; read-out: TRPV1 IC50 Potency Human pH CHO (hpH-CHO). The format is cell-based. The source says: For Protocol 2, a Chinese Hamster Ovary cell line (CHO) that has been engineered to constitutively express human recombinant TRPV1 was used (TRPV1/CHO cells). The TRPV1/CHO cell line was generated as described below.
The resulting PCR products were purified from agarose gels using Gel Band Purification Kit (GE Healthcare Bioscience) and were subcloned into pCR-Blunt vector (Invitrogen). The cloned cDNA was fully sequenced using a fluorescent dye-terminator reagent (BigDye Terminator ver3.1 Cycle Sequencing Kit, Applied Biosystems) and ABI Prism 3100 genetic analyzer (Applied Biosystems). The pCR-Blunt vector containing the hTRPV1 cDNA was subjected to restriction digestion with EcoR1. […] The sequence of the cDNA encoding TRPV1 is available at GenBank accession number AJ277028.
CHO-K1 cells were maintained in growth medium consisting of α-MEM, 10% FBS (Hyclone), and 100 IU/mL of penicillin-100 μg/mL of streptomycin mixed solution (Nacalai Tesque, Japan) at 37° C. in an environment of humidified 95% air and 5% CO2. […] 24 hr after transfection, neomycin-resistant cells were selected using 1 mg/mL G418 (Nacalai Tesque). […]
(5) The Fura-2 fluorescent intensity was monitored at a wavelength of 340 nm and at 380 nm, respectively, at a rate of 0.5 Hz for a total of 240 seconds.

A further data set is described as follows: Aqueous solubility. It is filed as physicochemical.
Data set [3] in a line: Bioavailability following oral administration. The format is in vivo.
The target in a further data set is TRPV1 receptor (Rattus norvegicus (Rat), UniProt O35433). As to the kind of experiment: Capsaicin-induced eye wipe test. The format is in vivo. Particulars: for number of capsaicin-induced eye wipes: pre-administration value 24. The protocol: as §1
To assess the effect of compounds of formula I on TRPV1 receptor-mediated pain, the capsaicin-induced eye wipe test is used (N. R. Gavva et al., “AMG 9810 [(E)-3-(4-t-Butylphenyl)-N-(2,3-dihydrobenzo[b][1,4]dioxin-6-yl)acrylamide], a Novel Vanilloid Receptor 1 (TRPV1) Antagonist with Antihyperalgesic Properties”, J. Pharmacol. Exp. Ther. 313:474-484 (2005)). The eye wipe test is a reliable high-throughput test of the effect of TRPV1 antagonists. Rats are given a single injection of 1, 3, 10 or 30 mg/kg of either a compound of formula I; 30 mg/kg of a control selected from Celebrex, indomethacin or naproxen; or carrier. At 1, 3 or 5 hours after drug administration, […] of a 100 μM capsaicin solution (in 10% EtOH/PBS) is instilled in one eye of each animal with a pipette. The number of forelimb movements (touching or wiping of the capsaicin-treated eye) are counted during a 2 minute period following instillation of capsaicin into the eye.

Data set [4] in a line: Plasma concentration after administration to an animal. It is filed as in vivo.
Data set [5] concerns the target T1, human TRPV1. Put plainly: Capsaicin-based assay, Protocol 2 (hCAP-CHO). It is filed as cell-based. Particulars: TRPV1/CHO cells, 100 nM capsaicin; mean ± SEM; read-out: TRPV1 IC50 Potency Human Capsaicin CHO (hCAP-CHO). The source says: The TRPV1/CHO cell line was generated as described below. […] The resulting PCR products were purified from agarose gels using Gel Band Purification Kit (GE Healthcare Bioscience) and were subcloned into pCR-Blunt vector (Invitrogen). The cloned cDNA was fully sequenced using a fluorescent dye-terminator reagent (BigDye Terminator ver3.1 Cycle Sequencing Kit, Applied Biosystems) and ABI Prism 3100 genetic analyzer (Applied Biosystems). The pCR-Blunt vector containing the hTRPV1 cDNA was subjected to restriction digestion with EcoR1. The restriction fragment was subcloned into expression vector pcDNA3.1(-) (Invitrogen) and named pcDNA3.1(-)-hVR1 plasmid. The sequence of the cDNA encoding TRPV1 is available at GenBank accession number AJ277028. […] The cells were transfected with the pcDNA3.1(-)-hVR1 plasmid using FuGENE6 (Roche) according to the manufacturer's protocol. 24 hr after transfection, neomycin-resistant cells were selected using 1 mg/mL G418 (Nacalai Tesque). […] The cells expressing hTRPV1 were cultured in the growth medium supplemented with 1 mg/mL G418. […] Subsequently, the cells were loaded by incubation in 0.1 mL of wash buffer containing Fluo-4 at 3 μM final concentration. After 1 hour, the cells were washed twice with 0.2 mL wash buffer and resuspended in 0.1 mL wash buffer. The plates were then transferred to a Fluorescence Imaging Plate Reader (Molecular Devices). Fluorescence intensity was monitored for 15 seconds to establish a baseline. […] The final concentration of the compound was adjusted to range from 100 μM to 1.5625 μM. […] Data were collected over the entire time course and analyzed using Excel and the curve-fitting formula GraphPad Prism.

T1 sequence (Q8NER1 whole entry): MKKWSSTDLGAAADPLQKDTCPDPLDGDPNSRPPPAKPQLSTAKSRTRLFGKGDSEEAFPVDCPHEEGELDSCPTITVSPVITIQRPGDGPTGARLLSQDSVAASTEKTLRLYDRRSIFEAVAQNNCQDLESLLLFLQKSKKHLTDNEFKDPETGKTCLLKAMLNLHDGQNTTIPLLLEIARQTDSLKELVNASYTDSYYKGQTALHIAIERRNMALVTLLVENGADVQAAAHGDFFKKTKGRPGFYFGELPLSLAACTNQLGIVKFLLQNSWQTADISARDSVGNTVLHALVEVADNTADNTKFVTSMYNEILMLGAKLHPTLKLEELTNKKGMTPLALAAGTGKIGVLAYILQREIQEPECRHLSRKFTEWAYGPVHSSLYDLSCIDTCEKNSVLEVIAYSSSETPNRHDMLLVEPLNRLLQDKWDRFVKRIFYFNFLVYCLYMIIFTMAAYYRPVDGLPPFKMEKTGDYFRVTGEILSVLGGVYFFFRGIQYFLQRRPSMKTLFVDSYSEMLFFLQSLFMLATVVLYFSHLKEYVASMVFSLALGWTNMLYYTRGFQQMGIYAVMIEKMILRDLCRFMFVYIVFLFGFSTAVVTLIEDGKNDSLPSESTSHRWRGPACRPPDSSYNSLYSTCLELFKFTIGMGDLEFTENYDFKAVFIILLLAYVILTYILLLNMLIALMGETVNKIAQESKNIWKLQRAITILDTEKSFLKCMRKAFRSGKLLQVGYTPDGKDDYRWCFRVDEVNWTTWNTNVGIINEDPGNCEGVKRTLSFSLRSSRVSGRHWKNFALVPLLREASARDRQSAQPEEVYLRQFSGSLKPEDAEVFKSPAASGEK
Sequence of TRPV1 receptor (O35433 whole entry): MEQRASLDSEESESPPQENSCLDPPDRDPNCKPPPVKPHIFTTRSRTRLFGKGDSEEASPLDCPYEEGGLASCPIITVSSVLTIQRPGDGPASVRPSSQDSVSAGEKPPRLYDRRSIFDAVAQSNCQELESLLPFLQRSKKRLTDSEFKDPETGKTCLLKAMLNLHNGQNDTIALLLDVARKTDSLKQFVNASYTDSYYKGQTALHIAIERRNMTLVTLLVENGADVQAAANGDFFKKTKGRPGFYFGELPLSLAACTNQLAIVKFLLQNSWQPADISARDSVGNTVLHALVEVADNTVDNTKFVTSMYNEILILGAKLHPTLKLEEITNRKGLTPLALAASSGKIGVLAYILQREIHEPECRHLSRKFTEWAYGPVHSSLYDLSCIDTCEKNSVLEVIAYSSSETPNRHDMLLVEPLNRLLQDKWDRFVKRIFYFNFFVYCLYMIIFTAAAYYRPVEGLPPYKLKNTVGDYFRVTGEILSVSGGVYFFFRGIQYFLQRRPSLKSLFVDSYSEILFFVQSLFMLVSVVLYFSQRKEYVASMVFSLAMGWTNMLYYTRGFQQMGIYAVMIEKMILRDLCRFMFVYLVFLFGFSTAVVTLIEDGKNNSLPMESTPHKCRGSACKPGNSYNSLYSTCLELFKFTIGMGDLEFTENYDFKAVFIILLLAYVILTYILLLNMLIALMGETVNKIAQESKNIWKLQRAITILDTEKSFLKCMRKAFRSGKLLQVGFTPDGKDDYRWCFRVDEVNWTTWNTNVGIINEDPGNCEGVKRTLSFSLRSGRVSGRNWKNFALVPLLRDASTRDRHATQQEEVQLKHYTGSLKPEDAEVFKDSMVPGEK

In the case of `O=C(Nc1ccc(C(F)(F)F)c(Cl)c1)N1CC=C(c2ncc([C@H](O)CO)cc2Cl)CC1` [Compound D2, (S)-3-Chloro-5-(1,2-dihydroxy-ethyl)-3′,6′-dihydro-2′H-[2,4]bipyridinyl-1′-carboxylic acid (3-chloro-4-trifluoromethyl-phenyl)amide], in data set [1] (3 hours after administration), the ED50 stood at 0.95 mg/kg. For the same compound, in data set [1] (5 hours after administration), the “maximum % reversal of FCA-induced thermal hyperalgesia” value is recorded as 78.7% and the ED50 is 1.63 mg/kg.
`N#CCc1cnc(C2=CCN(C(=O)Nc3ccc(C(F)(F)F)cc3)CC2)c(Cl)c1` [Compound E6, 4-(3-chloro-5-(cyanomethyl)pyridin-2-yl)-N-(4-(trifluoromethyl)phenyl)-5,6-dihydropyridine-1(2H)-carboxamide]: the IC50 at human TRPV1 [2] came to 164 nM. Besides, in the data set “Aqueous solubility”, the “aqueous solubility at pH 1.2” value came to 27.2 μM and the “aqueous solubility at pH 6.8” value is listed as 9.0 μM.
Consider `O=C(Nc1ccc(C(F)(F)F)cn1)N1CCC(F)(c2ncc([C@H](O)CO)cc2Cl)CC1` [Compound G1], for which the bioavailability in data set [3] (in vivo, read-out: bioavailable following oral administration) amounted to 70.7%.
On to `O=C(Nc1ccc(C(F)(F)F)cc1)N1CCC(F)(c2ncc([C@H](O)CO)cc2Cl)CC1` [Compound N1, (S)-4-(3-chloro-5-(1,2-dihydroxyethyl)pyridin-2-yl)-4-fluoro-N-(4-(trifluoromethyl)phenyl)piperidine-1-carboxamide], for which, at TRPV1 receptor (1 hour after administration), the “decrease of eye wipes relative to pre-administration value” came out at 87.5% and the “number of capsaicin-induced eye wipes” value was determined as 3. For the same compound, on TRPV1 receptor (3 hours after administration), the “decrease of eye wipes relative to pre-administration value” is on record as 96% and the “number of capsaicin-induced eye wipes” value came out at 1. At TRPV1 receptor (5 hours after administration), the “decrease of eye wipes relative to pre-administration value” came out at 92% and the “number of capsaicin-induced eye wipes” value is 2. Further, in “Aqueous solubility”, the “aqueous solubility at pH 1.2” value is recorded as more than 50 μM and the “aqueous solubility at pH 6.8” value is on record as 28.0 μM.
Turning to `CC(O)(CO)c1cnc(C2=CCN(C(=O)Nc3ccc(C(F)(F)F)cc3)CC2)c(Cl)c1` (stereo not drawn) [Compound R6], the “bioavailable following oral administration” value in data set [3] was found to be 68.9%. In addition, the “time to maximum plasma concentration after administration” value in data set [4] (animal plasma) came out at 1.85 h. Further, the “maximum plasma concentration relative to the maximum for compound 200” value in data set [4] (animal plasma, for a given dose) came out at 5.3 times. Further, in data set [4] (up to 24 h), the “plasma concentration up to 24 h compared with compound 200” value is “consistently greater”.
Consider `O=C(Nc1ccc(OC(F)(F)F)c(Cl)c1)N1CC=C(c2ncc([C@H](O)CO)cc2Cl)CC1` [Compound Y1, (S)-3-Chloro-5-(1,2-dihydroxy-ethyl)-3′,6′-dihydro-2′H-[2,4]bipyridinyl-1′-carboxylic acid (3-chloro-4-trifluoromethoxy-phenyl)amide], for which the values for the 50% inhibitory concentration (IC50) at human TRPV1 [5] and at human TRPV1 [2] were 74.7 ± 18.4 nM and 13.5 ± 1.2 nM, respectively.
